Experimental data published in US5326902A, “Oxyalkyne compounds, pharmaceutical compositions containing them and processes for preparing such compounds and compositions” (Gruenenthal GmbH, priority 1992, dated 1994).

What was measured:
5-lipoxygenase = experiment: Inhibition of 5-lipoxygenase in Rat Blood After Oral Administration (ex vivo iLTB4-formation); details: 21.5 mg/kg oral, male Wistar rats, one hour after administration
Description: The bioavailability of the compounds of formula I as 5-lipoxygenase inhibitors was characterized by means of an ex vivo biochemical assay method described by Tateson et al. in Brit. J. Pharmacol. 94, 528 (1988): A compound of formula I was orally administered to male rats (Wistar strain) at a dose of 21.5 mg/kg. After lethal CO2 -narcosis one hour after administration, the rats were bled by heart puncture with added heparin as an anticoagulant. Aliquots of the whole blood were incubated at 37° C. for 30 minutes in a water bath with calcium ionophore A 23 187 at an end concentration of 15 μg/ml. At the end of the incubation, the samples were centrifuged, and the concentration of the immunoreactive LTB4 (iLTB4) in aliquots of cell-free plasma was determined by radioimmunoassay (3H-LTB4 -RIA, Amersham). To enable calculation of the inhibition in percent of ex vivo iLTB4 -formation in whole rat blood treated with a compound according to the invention, rats orally treated with an appropriate vehicle solution were included in all experiments, and aliquots of their blood were run in parallel and were processed in the same way as described. The average iLTB4 -content of the plasma of the vehicletreated rats served as a 100% value. The activity in percent of the ex vivo iLTB4 -formation after oral administration of a compound according to the invention was calculated by dividing the average value of the iLTB4 -contents in ng iLTB4 /ml of the group treated with a compound according to the invention by the average value of the iLTB4 -contents in ng iLTB4 /ml of the vehicle treated group and subsequent multiplication by a factor of 100. The respective inhibition in percent was calculated by subtracting the activity in percent from 100.

[1] = test system: bronchoconstriction elicited by ovalbumin; experiment: Allergen-induced bronchoconstriction in guinea pigs (Konzett-Rossler); type: in vivo, guinea pig; details: Cavia porcellus, 1 h; oral, 60 minutes before ovalbumin (0.2 mg/kg intravenous); passively sensitized guinea pigs; read-out: ED40-Value (40% average inhibition of the bronchoconstriction elicited by ovalbumin)
Description: The anti-asthmatic effect of compounds according to the invention was tested in anesthetized and ventilated guinea pigs. To induce an asthmatic reaction, the animals were passively sensitized by a single intraperitoneal injection of anti-ovalbumin serum. After 48 hours, the asthmatic reaction was elicited by intravenous challenge with 0.2 mg/kg of ovalbumin. The immediately resulting bronchoconstriction was measured as an increase in intratracheal pressure. Effects caused by histamine, serotonin and sympathic counterreaction were eliminated by intravenous pretreatment with 2.15 mg/kg of mepyramine, 46.4 μg/kg of propranolol, 4.64 mg/kg of atropine and 1 mg/kg of methysergide, all administered 5 minutes before challenge. Compounds according to the invention were administered orally 60 minutes before the administration of ovalbumin. The following […] for the inhibition of the bronchoconstriction elicited by ovalbumin, i.e. the effective doses causing a 40% average inhibition of the bronchoconstriction, were determined: […]

12-lipoxygenase = molecular target: T1, 12-lipoxygenase (Homo sapiens, UniProt P18054); experiment: Inhibition of 12-lipoxygenase in human blood; type: cell-based; design: 3 ml aliquots of human whole blood treated with heparin; from tissue; host or cells: human whole blood (heparinized); details: human whole blood; calcium ionophore A 23 187 15 μg/ml; 37° C., 30 minutes; 12-HETE by HPLC
T1 sequence (P18054 1-663): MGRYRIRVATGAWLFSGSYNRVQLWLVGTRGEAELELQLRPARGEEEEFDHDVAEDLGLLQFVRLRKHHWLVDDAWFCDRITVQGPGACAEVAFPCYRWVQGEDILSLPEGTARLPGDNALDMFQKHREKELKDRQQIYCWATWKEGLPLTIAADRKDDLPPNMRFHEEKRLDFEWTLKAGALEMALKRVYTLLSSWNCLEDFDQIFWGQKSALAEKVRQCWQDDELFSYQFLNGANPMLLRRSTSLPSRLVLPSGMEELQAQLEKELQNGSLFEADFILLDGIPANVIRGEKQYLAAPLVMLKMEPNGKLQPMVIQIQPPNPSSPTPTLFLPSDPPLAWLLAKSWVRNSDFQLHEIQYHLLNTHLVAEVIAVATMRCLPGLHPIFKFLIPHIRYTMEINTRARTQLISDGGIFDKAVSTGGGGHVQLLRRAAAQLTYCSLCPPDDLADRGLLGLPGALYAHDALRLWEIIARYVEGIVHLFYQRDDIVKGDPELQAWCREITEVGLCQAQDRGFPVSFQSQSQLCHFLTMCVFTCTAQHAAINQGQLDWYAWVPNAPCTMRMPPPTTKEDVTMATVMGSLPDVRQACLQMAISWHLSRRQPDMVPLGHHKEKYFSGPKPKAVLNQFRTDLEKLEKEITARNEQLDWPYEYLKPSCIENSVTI
Description: 3 ml aliquots of human whole blood treated with heparin were incubated either with a compound according to the invention or with dimethyl sulfoxide at 37° C. for 5 minutes. Then 12-lipoxygenase was activated by addition of calcium ionophore A 23 187 (15 μg/ml blood). After incubation at 37° C. for 30 minutes and centrifugation, cell-free plasma was obtained. Plasma protein was precipitated by addition of 2 ml of ethanol per ml of plasma and then separated by centrifugation. After adjusting the ethanol content in the supernatant with water to 10% by volume, the 12-lipoxygenase product 12-HETE was enriched by solid phase extraction using an octadecyl silica column. The methanolic eluate was evaporated to dryness, diluted in 40% by volume of methanol, and the 12-HETE-content was determined by HPLC. The IC50 -values of the compounds of the invention prepared according to Examples 1, 8 and 16 were 2, 4 and 3 μmolar, respectively.

- IC50 (12-lipoxygenase): 2 µM
Structure (SMILES): CC(=O)N(O)Cc1ccc(C(O)C#Cc2ccccc2)cc1 (racemic) [Example 1, N-Hydroxy-N-[4-[1-hydroxy-3-phenyl-prop-2-yn-1-yl]benzyl]acetamide]
- Inhibition [%] of ex vivo iLTB4-formation (5-lipoxygenase): 93%
- ED40 [1]: 17 mg/kg
